Reference: US7323447B2, “Hepatitis C virus inhibitors” (Bristol-Myers Squibb Company, priority 2005, dated 2008)

Experiments:
[1] = target: T1, HCV NS3/4A protease complex (BMS strain) (UniProt P27958); assay: FRET peptide assay to monitor HCV NS3/4A proteolytic activity, BMS strain; type: biochemical, Hepatitis C virus (genotype 1a); settings: read-out: IC50 Range; HCV NS3/4A enzyme assay; Table 1
T1 construct: other: HCV NS3/4A enzyme assay; said of H77 and J4L6S; fused on or other part: Three-lysine solubilising tail at the NS4A C-terminus and a His tag from pET21b (Ni-NTA purification), for the H77 and J4L6S constructs
T1 sequence (P27958 1027-1657, one chain of several): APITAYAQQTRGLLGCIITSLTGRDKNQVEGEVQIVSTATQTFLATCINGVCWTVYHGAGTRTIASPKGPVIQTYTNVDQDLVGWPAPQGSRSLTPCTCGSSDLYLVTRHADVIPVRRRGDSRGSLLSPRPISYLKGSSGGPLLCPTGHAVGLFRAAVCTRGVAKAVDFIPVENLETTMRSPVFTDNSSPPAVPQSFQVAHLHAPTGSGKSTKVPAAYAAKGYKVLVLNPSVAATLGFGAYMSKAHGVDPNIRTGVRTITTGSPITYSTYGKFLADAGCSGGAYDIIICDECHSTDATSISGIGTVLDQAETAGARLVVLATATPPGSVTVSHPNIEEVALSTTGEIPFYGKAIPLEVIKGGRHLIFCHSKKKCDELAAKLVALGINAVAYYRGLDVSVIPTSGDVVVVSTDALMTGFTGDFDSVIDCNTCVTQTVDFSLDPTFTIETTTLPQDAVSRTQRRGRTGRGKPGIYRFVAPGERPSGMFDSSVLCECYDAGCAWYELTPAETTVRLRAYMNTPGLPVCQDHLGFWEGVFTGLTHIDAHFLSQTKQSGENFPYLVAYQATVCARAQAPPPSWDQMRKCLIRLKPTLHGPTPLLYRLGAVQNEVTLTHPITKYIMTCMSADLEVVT
Method in brief: (§1)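 Recombinant NS3/4A (BMS strain, genotype 1a, >90% pure) cleaving FRET depsipeptide RET S1 (EDANS/DABCYL) at 2 μM; enzyme 2-3 nM (300 pM with 50 μg/ml BSA for sensitive runs). Buffer 50 mM HEPES pH 7.5, 0.15 M NaCl, 0.1% Triton, 15% glycerol, 10 mM βME; fluorescence followed in real time.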

[2] = target: T2, HCV NS3/4A protease complex (BMS strain) (UniProt P27958, species not given/STRAIN_BMS); assay: as above; type: biochemical, Hepatitis C virus (genotype 1a); settings: read-out: IC50 against the NS3/4A BMS strain in the enzyme assay; BMS strain
T2 construct: other: BMS strain; said of H77 and J4L6S; These are given only for the H77 and J4L6S constructs
T2 sequence (P27958 1027-1657, stated change not applied, one chain of several): as the sequence (P27958 1027-1657, one chain of several) above
Method in brief: as §1

With C=C[C@@H]1C[C@]1(NC(=O)[C@@H]1C[C@@H](OC(=O)N2Cc3cccc(F)c3C2)CN1C(=O)[C@@H](OC(=O)NC(C)(C)C)C(C)(C)C)C(=O)NS(=O)(=O)C1CC1 [Example 56Compound 56] the IC50 [1] was < 100 nM and the IC50 [2] was 99 nM.
